Measurements: patent publication US8685934B2, “Methods for treating extreme insulin resistance in patients resistant to previous treatment with other anti-diabetic drugs employing an SGLT2 inhibitor and compositions thereof” (Bristol-Myers Squibb Company, priority 2009, dated 2014)
Where two headings read alike, the source gives them in different places.

Tests used:
[1] = tested on: highly insulin-resistant T2DM patients poorly controlled with insulin plus metformin and/or thiazolidinediones; conditions: for Patients who required up-titration of insulin: throughout the 12-week double-blind period, placebo arm 4 patients; for Patients exposed to study medication for ≧84 days prior to insulin up-titration: versus 39.1% in the placebo arm
Experimental: Criteria for management of hyperglycemia were determined by fasting plasma glucose (FPG) measurements. For any FPG level >240 mg/dL at weeks 4 and 6, >220 mg/dL at week 8, or >200 mg/dL at week 10, the patient would be scheduled for a follow-up visit in 3 to 5 days. If FPG was still above the threshold at follow-up, a visit was scheduled in order to increase the insulin dose as clinically indicated. Patients who further lacked glycemic control despite up-titration, or whose modified insulin dose exceeded baseline, were discontinued from blinded treatment and entered into follow-up.
All patients were on insulin-sensitizer therapy for at least 6 weeks prior to enrollment and insulin-based therapy for at least 12 weeks prior to enrollment. The study protocol defined insulin-sensitizer therapy as metformin (stable dose ≧1000 mg) and/or pioglitazone (stable dose ≧30 mg) or rosiglitazone (stable dose 4 mg). Insulin-based therapy was defined as subcutaneous insulin for at least 12 weeks prior to enrollment, with 2 minimum insulin daily dose equivalent to 50 units (median 85 to 93 units across all study arms) of U100 insulin per day. The insulin regimen must have been stable for at least 6 weeks. In addition to 10 mg dapagliflozin or 20 mg dapagliflozin daily or placebo, 74.6% of patients received metformin (≧1000 mg daily) plus insulin; 16.9% of patients received metformin (≧1000 mg daily) plus pioglitazone (≧30 mg daily) or rosiglitazone (4 mg daily) plus insulin and 8.5% of patients received pioglitazone (≧30 mg daily) or rosiglitazone (4 mg daily) plus insulin.
Patients in Cohort 1 were evaluated for safety only. Patients in Cohort 2 were evaluated for safety and efficacy. The primary efficacy measure was change from baseline in HbAlc, at week 12, last observation carried forward (LOCF). If no week 12 assessment was available, the last observation prior to week 12 was used. Secondary efficacy measures included changes from baseline at week 12 (LOCF) in FPG and insulin dose, the proportion of patients achieving a decrease in HbAlc>0.5% from baseline at week 12 (LOCF), and the proportion of patients achieving HbAlc<7% at week 12 (LOCF). Tertiary endpoints included changes from baseline in total body weight and in postprandial glucose (PPG) measured by an oral glucose tolerance test (OGTT).
Patients in Cohort 2 were evaluated for safety and efficacy. The primary efficacy measure was change from baseline in HbAlc at week 12, last observation carried forward (LOCF). The analysis was done excluding data after up-titration of insulin. If no week 12 assessment was available, the last observation prior to week 12 was used.
For Cohort 2, the sample size target of 22 patients per treatment group was chosen to allow for the calculation of 95% confidence intervals for the primary endpoint with a half-width of 0.42% for each treatment group. This assumed a 1% standard deviation for the primary endpoint in each of the dapagliflozin and placebo arms. With the same assumption, the half-width of a 95% confidence interval for the difference between any two treatment mean changes was estimated to be 0.59%. The primary efficacy data set consisted of all randomized patients who took at least one dose of double-blind study medication during the treatment phase. The analyses of the efficacy variables (except change from baseline in insulin dose) were done excluding data after up-titration of insulin. The analyses for changes from baseline in HbAlc, FPG, insulin dose, and total body weight at week 12 (LOCF) were performed using an analysis of covariance (ANCOVA) model with treatment group as an effect and baseline value as a covariate. Point estimates and 95% confidence intervals were calculated for mean changes within each treatment group and for differences in mean changes between the dapagliflozin and placebo groups.

[2] = tested on: highly insulin-resistant T2DM patients poorly controlled with insulin plus metformin and/or thiazolidinediones; conditions: for 24-hour urinary glucose, increase / Standing diastolic blood pressure, mean change / Standing systolic blood pressure, mean change / Serum hematocrit, median increase from baseline / Urinary glucose excretion, mean change from baseline: week 12; for Glomerular filtration rate, change compared to baseline: end of treatment; for Urinary glucose excretion, mean change from baseline: placebo −1.5
Text: This was a randomized, single- and double-blind, three-arm parallel group, placebo-controlled trial to determine if dapagliflozin effectively lowers hyperglycemia in highly insulin-resistant T2DM patients poorly controlled with insulin plus metformin and/or thiazolidinediones. The trial consisted of a qualification period of 10 to 21 days, a treatment phase of 12 weeks, and a follow-up phase of 4 weeks. During qualification and until day 1, patients maintained their stable dose of open-label OADs, as well as their stable dose of prescribed insulin.
The treatment phase utilized an adaptive trial design with two cohorts: Cohort 1, the insulin dose-setting group; and Cohort 2, the main experimental group. The purpose of Cohort 1 was to determine the ideal starting dose of insulin least likely to cause hypoglycemia when dapagliflozin would be added. In Cohort 1, four patients were assigned to 20 mg single-blind dapagliflozin on day 1 after having their insulin dose decreased by 50%, the greatest decrement possible in this adaptive design. These patients underwent 48-hour continuous blood glucose monitoring (CGM) during the first week of treatment. Pursuant to the protocol, if at least one patient recorded a CGM value ≦100 mg/dL, confirmed by self-monitoring of blood glucose (SMBG), the total daily insulin dose for patients in Cohort 2 would be set at 50% of their usual dose that is, at an average of 52 to 54 units of insulin daily, and lesser dose reductions of insulin would not be tested. […] Patients in Cohort 2 were randomized on day 1 in a 1:1:1 ratio to double-blind placebo, 10 mg dapagliflozin or 20 mg dapagliflozin once daily, in addition to their open-label OAD(s) and 50% of their usual daily insulin, that is an average of 52 to 54 units of insulin daily.
Safety outcomes were assessed by treatment-emergent adverse events, vital signs, ECGs and laboratory measurements, including 24-hour urine collections for volume and electrolytes.

[3] = Dapagliflozin 20 mg + insulin + OAD, week 12 LOCF
[4] = Dapagliflozin 20 mg + insulin + OAD, week 12 LOCF, ANCOVA-adjusted, excludes data after insulin up-titration
[5] = Dapagliflozin 20 mg + insulin + OAD, week 12 LOCF, ANCOVA-adjusted, excludes data after insulin up-titration, listed as dapagliflozin
[6] = Dapagliflozin 20 mg + insulin + OAD, week 12 LOCF, excludes data after insulin up-titration
[7] = Dapagliflozin 20 mg + insulin + OAD, week 12 LOCF, of 23 patients, excludes data after insulin up-titration

CCOc1ccc(Cc2cc([C@@H]3O[C@H](CO)[C@@H](O)[C@H](O)[C@H]3O)ccc2Cl)cc1 [Dapagliflozin, (2S,3R,4R,5S,6R)-2-(4-chloro-3-(4-ethoxybenzyl)phenyl)-6-(hydroxymethyl)tetrahydro-2H-pyran-3,4,5-triol]
Total daily insulin dose, mean (SD), End of Double-blind (Week 12 LOCF) ([1]; Dapagliflozin 20 mg + insulin + OAD, includes data after insulin up-titration, U = units of U100 insulin): 53.5 (32.1) U | Postprandial glucose, mean (SD), End of Double-blind (Week 12 LOCF) ([1]; Dapagliflozin 20 mg + insulin + OAD, measured at 120 minutes by OGTT, excludes data after insulin up-titration): 272.6 (51.2) mg/dL | Fasting plasma glucose change from baseline, difference vs placebo + insulin + OAD, mean (95% CI) [1, 3]: −27.4 (−50.3 to −4.6) mg/dL | HbA1c change from baseline, difference vs placebo + insulin + OAD, mean (95% CI) [1, 3]: −0.78 (−1.16 to −0.40) % | Patients with ↓ HbA1c ≧ 0.5%, difference in proportions vs placebo + insulin + OAD (95% CI) [1, 3]: 49.4 (20.1 to 72.4) % | Total daily insulin dose change from baseline, difference vs placebo + insulin + OAD, mean (95% CI) [1, 3]: −2.5 (−10.2 to 5.1) U | Weight change from baseline, difference vs placebo + insulin + OAD, mean (95% CI) [1, 3]: −2.4 (−3.8 to −1.0) kg | Postprandial glucose, change from baseline, mean (95% CI) ([1]; Dapagliflozin 20 mg + insulin + OAD, week 12 LOCF, 120 minutes by OGTT, excludes data after insulin up-titration): −41.9 (−74.8 to −8.9) mg/dL | Fasting plasma glucose, change from baseline, mean (95% CI) [1, 4]: −9.6 (−25.6 to 6.3) mg/dL | HbA1c, change from baseline, mean (95% CI) [1, 4]: −0.69 (−0.94 to −0.43) % | Weight, change from baseline, mean (95% CI) [1, 4]: −4.3 (−5.3 to −3.3) kg | Fasting plasma glucose, change from baseline, mean (95% CI) [1, 5]: -9.6 mg/dL | Weight, change from baseline, mean (95% CI) [1, 5]: -4.3 kg | Total daily insulin dose, change from baseline, mean (95% CI) ([1]; Dapagliflozin 20 mg + insulin + OAD, week 12 LOCF, ANCOVA-adjusted, includes data after insulin up-titration): −0.8 (−6.1 to 4.5) U | Patients with HbA1c < 7.0%, (%), response [1, 6]: 4.3% | Patients with ↓ HbA1c ≧ 0.5%, (%), response [1, 6]: 65.2% | HbA1c change from baseline, difference vs placebo + insulin + OAD, mean (95% CI) ([1]; Dapagliflozin 20 mg + insulin + OAD, week 12 LOCF, listed as dapagliflozin): −0.78% | Patients with HbA1c < 7.0%, No., response [1, 7]: 1 | Patients with ↓ HbA1c ≧ 0.5%, No., response [1, 7]: 15 | HbA1c, mean (SD), End of Double-blind (Week 12 LOCF) ([1]; Dapagliflozin 20 mg once daily + insulin (50% of usual dose) + OAD, Cohort 2, excludes data after insulin up-titration): 7.8 (0.6) % | Patients who required up-titration of insulin ([1]; dapagliflozin 10 mg arm (n = 24)): 1 patient | Patients exposed to study medication for ≧84 days prior to insulin up-titration ([1]; dapagliflozin 10 mg arm): 66.7% | Patients who required up-titration of insulin ([1]; dapagliflozin 20 mg arm (n = 24)): 3 patients | Patients exposed to study medication for ≧84 days prior to insulin up-titration ([1]; dapagliflozin 20 mg arm): 66.7% | Additional weight loss compared to placebo ([1]; dapagliflozin treatment (dose not distinguished), insulin dose reduced by 50%): -2.5 kg | HbAlc, PPG and weight versus placebo, in words ([1]; insulin-resistant patients who had their baseline insulin reduced 50%): decreased HbAlc, PPG and weight more than placebo | Weight lowering versus placebo, in words ([1]; week 12 (LOCF)): more likely to lower weight than placebo | 24-hour urinary glucose, increase ([2]; 10 mg dapagliflozin): ~85 grams per day | Standing diastolic blood pressure, mean change ([2]; 10 mg dapagliflozin): −1.2 mm Hg | Standing systolic blood pressure, mean change ([2]; 10 mg dapagliflozin): −7.2 mm Hg | Supine diastolic blood pressure, mean change ([2]; 20 mg dapagliflozin): −5.8 mm Hg | Supine systolic blood pressure, mean change ([2]; 20 mg dapagliflozin): −5.5 mm Hg | 24-hour urinary glucose, increase ([2]; 20 mg dapagliflozin): ~85 grams per day | Standing diastolic blood pressure, mean change ([2]; 20 mg dapagliflozin): −3.9 mm Hg | Standing systolic blood pressure, mean change ([2]; 20 mg dapagliflozin): −6.1 mm Hg | Serum uric acid, median change from baseline ([2]; dapagliflozin 10 mg): -0.30 mg/dL | Glomerular filtration rate, change compared to baseline ([2]; dapagliflozin 10 mg): −0.84 mL/min/1.73 m^2 | Mean 24-hour urine output on treatment ([2]; dapagliflozin 10 mg, increased from 1921.0 mL at baseline): 2285.8 mL | Serum hematocrit, median increase from baseline ([2]; dapagliflozin 10 mg): 2.5% | Urinary glucose excretion, mean change from baseline ([2]; dapagliflozin 10 mg): 83.5 g/24 h | Serum uric acid, median change from baseline ([2]; dapagliflozin 20 mg): -0.30 mg/dL | Glomerular filtration rate, change compared to baseline ([2]; dapagliflozin 20 mg): 1.45 mL/min/1.73 m^2 | Mean 24-hour urine output on treatment ([2]; dapagliflozin 20 mg, increased from 1808.8 mL at baseline): 2253.1 mL | Serum hematocrit, median increase from baseline ([2]; dapagliflozin 20 mg): 3.05% | Urinary glucose excretion, mean change from baseline ([2]; dapagliflozin 20 mg): 85.2 g/24 h
